According to the Kinase Knowledgebase extract (Sharma et al. 2016):

Key:
[1] = target: PIK3CA (human) (UniProt P42336); assay: Assessment of PIK3CA Kinase Activity
[2] = target: PIK3CB (Human) (UniProt P42338); assay: Assessment of PIK3CB Kinase Activity
Chain of PIK3CB (Human) (P42338 whole entry, looked up): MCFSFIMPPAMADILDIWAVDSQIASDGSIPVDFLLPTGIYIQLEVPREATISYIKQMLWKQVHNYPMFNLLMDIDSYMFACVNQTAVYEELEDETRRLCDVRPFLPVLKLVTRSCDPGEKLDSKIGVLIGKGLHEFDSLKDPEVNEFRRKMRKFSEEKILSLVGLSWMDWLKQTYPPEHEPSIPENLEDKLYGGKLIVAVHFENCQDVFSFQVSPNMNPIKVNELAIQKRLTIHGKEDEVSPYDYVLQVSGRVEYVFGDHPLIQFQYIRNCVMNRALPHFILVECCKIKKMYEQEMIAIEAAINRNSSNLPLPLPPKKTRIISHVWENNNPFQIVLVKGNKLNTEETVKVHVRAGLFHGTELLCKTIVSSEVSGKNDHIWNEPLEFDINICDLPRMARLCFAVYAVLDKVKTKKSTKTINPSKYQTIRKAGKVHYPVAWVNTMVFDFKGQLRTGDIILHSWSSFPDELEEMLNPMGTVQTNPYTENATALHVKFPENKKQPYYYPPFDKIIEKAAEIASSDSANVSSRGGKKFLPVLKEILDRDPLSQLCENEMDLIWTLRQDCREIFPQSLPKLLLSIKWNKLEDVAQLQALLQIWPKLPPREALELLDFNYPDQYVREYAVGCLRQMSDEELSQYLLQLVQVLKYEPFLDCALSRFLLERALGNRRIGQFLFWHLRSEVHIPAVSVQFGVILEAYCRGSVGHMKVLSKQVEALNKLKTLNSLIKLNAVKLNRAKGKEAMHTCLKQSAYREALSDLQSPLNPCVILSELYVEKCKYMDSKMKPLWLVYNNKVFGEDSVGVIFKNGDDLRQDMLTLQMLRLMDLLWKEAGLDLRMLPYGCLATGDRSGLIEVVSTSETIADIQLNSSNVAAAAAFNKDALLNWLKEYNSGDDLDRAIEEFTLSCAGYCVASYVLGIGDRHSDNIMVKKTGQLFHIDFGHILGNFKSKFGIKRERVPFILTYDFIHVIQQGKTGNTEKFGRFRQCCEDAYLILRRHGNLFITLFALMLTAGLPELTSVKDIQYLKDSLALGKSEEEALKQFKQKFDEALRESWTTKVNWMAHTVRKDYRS

Chain of PIK3CA (human) (P42336 whole entry, looked up): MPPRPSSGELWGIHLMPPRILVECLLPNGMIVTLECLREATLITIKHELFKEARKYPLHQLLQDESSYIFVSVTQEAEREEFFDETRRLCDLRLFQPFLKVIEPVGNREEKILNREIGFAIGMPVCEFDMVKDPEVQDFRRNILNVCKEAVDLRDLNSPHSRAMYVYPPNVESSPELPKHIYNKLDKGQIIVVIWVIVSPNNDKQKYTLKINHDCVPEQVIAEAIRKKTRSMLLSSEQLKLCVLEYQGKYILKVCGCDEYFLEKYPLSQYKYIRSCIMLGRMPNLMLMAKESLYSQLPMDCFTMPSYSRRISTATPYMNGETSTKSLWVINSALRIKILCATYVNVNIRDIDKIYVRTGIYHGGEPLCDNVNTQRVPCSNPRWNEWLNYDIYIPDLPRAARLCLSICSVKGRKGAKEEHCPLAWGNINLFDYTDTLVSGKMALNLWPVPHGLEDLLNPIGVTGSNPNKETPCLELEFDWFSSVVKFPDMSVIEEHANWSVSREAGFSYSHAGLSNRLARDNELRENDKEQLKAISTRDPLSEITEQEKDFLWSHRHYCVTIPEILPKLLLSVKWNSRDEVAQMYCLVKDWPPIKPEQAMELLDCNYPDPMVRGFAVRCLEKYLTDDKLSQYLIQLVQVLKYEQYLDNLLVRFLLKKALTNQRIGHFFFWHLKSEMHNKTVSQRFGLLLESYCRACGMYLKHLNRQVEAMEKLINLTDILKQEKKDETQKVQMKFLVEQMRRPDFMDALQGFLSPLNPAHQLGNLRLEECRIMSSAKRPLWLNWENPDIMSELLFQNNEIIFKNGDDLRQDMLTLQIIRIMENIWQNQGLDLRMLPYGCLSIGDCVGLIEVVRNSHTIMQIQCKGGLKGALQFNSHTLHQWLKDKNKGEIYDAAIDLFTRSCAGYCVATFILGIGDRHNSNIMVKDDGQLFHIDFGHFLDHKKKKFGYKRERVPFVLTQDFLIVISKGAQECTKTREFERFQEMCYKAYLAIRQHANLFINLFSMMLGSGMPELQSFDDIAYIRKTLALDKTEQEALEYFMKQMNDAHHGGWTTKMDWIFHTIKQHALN

| IC50 [1] | IC50 [2] | Compound |
| --- | --- | --- |
| < 10 nM | < 10 nM | COc1c(OCCCN2CCOCC2)ccc2c1N=C(NC(=O)c1cnc(NCCO)nc1)N1CCN=C21 |
| < 10 nM | < 10 nM | COc1c(OCC2CN(C)CCO2)ccc2c1N=C(NC(=O)c1cccnc1)N1CCN=C21 (centres undefined) |
| < 10 nM | < 10 nM | COCCNc1ncc(C(=O)NC2=Nc3c(ccc(OCCCN4CCOCC4)c3OC)C3=NCCN23)cn1 |
| < 10 nM | < 10 nM | COc1c(OCC(CO)CN2CCOCC2)ccc2c1N=C(NC(=O)c1cccnc1)N1CCN=C21 (centres undefined) |
| < 10 nM | < 10 nM | COc1c(OCCCN2CCOCC2)ccc2c1N=C(NC(=O)c1ccc(N3CC[C@H](N)C3)nc1)N1CCN=C21 |
| < 10 nM | < 10 nM | COc1c(OCCCN2CCOCC2)ccc2c1N=C(NC(=O)c1cnc(N)nc1C)N1CCN=C21 |
| < 10 nM | < 10 nM | COc1c(OCCCN2CCOCC2)ccc2c1N=C(NC(=O)c1cnc(NCCN(C)C)nc1)N1CCN=C21 |
| < 10 nM | < 10 nM | COc1c(OCCN(C)C)ccc2c1N=C(NC(=O)c1cncnc1)N1CCN=C21 |
| < 10 nM | < 10 nM | COc1c(OCCCN(C)C)ccc2c1N=C(NC(=O)c1cnc(N)s1)N1CCN=C21 |
| < 10 nM | < 10 nM | COc1c(OCCCN2CCOCC2)ccc2c1N=C(NC(=O)c1cccnc1)N1CCN=C21 |
| < 10 nM | < 10 nM | COc1c(OCCCN2CCOCC2)ccc2c1N=C(NC(=O)c1ccnc(N)c1)N1CCN=C21 |
| < 10 nM | < 10 nM | COc1c(OCCCN2CCOCC2)ccc2c1N=C(NC(=O)c1ccc(N(C)C)nc1)N1CCN=C21 |
| < 10 nM | < 10 nM | COc1c(OCCCN2CCOCC2)ccc2c1N=C(NC(=O)c1cncn1C)N1CCN=C21 |
| < 10 nM | < 10 nM | COCCN1CCOC(COc2ccc3c(c2OC)N=C(NC(=O)c2cccnc2)N2CCN=C32)C1 (centres undefined) |
| < 10 nM | < 10 nM | COc1c(OCCCN2CCOCC2)ccc2c1N=C(NC(=O)c1sc(C)nc1C)N1CCN=C21 |
| < 10 nM | < 10 nM | COc1c(OCCCN(C)C)ccc2c1N=C(NC(=O)c1cnc(N)nc1)N1CCN=C21 |
| < 10 nM | < 10 nM | COc1c(OCCCN2CCOCC2)ccc2c1N=C(NC(=O)c1ccc(N)nc1C)N1CCN=C21 |
| < 10 nM | – | COc1c(OCCCN(C)C)ccc2c1N=C(NC(=O)c1ccc[n+]([O-])c1)N1CCN=C21 |
| < 10 nM | < 10 nM | COc1c(OCCCC2CN(CC3CCC3)CCO2)ccc2c1N=C(NC(=O)c1cccnc1)N1CCN=C21 (centres undefined) |
| < 10 nM | < 10 nM | COc1c(OCCCN2CCOCC2)ccc2c1N=C(NC(=O)c1ccc(N3CC[C@@H](N)C3)nc1)N1CCN=C21 |

| IC50 [1] | IC50 [2] | Compound |
| --- | --- | --- |
| < 10 nM | < 10 nM | COc1c(OCCCN(C)C)ccc2c1N=C(NC(=O)c1cccnc1)N1CCN=C21 |
| < 10 nM | < 10 nM | CNCCCOc1ccc2c(c1OC)N=C(NC(=O)c1cccnc1)N1CCN=C21 |
| < 10 nM | < 10 nM | COc1c(OCCCN2C[C@@H](C)O[C@@H](C)C2)ccc2c1N=C(NC(=O)c1ccc(NC(C)=O)nc1)N1CCN=C21 |
| < 10 nM | < 10 nM | COc1c(OCCCN2CCOCC2)ccc2c1N=C(NC(=O)c1cnc(N)o1)N1CCN=C21 |
| < 10 nM | < 10 nM | COc1c(OCCCN2C[C@@H](C)O[C@@H](C)C2)ccc2c1N=C(NC(=O)c1sc(C)nc1C)N1CCN=C21 |
| < 10 nM | < 10 nM | CCCc1nc(N)ncc1C(=O)NC1=Nc2c(ccc(OCCCN3CCOCC3)c2OC)C2=NCCN12 |
| < 10 nM | < 10 nM | COc1c(OCCCN2CCOCC2)ccc2c1N=C(NC(=O)c1cncnc1)N1CCN=C21 |
| < 10 nM | < 10 nM | COc1c(OCCN(C)C)ccc2c1N=C(NC(=O)c1cccnc1)N1CCN=C21 |
| < 10 nM | < 10 nM | COc1c(OCCCN2CCOCC2)ccc2c1N=C(NC(=O)c1cnc(N)c(Br)c1)N1CCN=C21 |
| < 10 nM | < 10 nM | COc1c(OCCCN2CCOCC2)ccc2c1N=C(NC(=O)c1ccc(NC(=O)C3CC3)nc1)N1CCN=C21 |
| < 10 nM | < 10 nM | COc1c(OCCCN(C)C)ccc2c1N=C(NC(=O)c1ccc(N)nc1)N1CCN=C21 |
| < 10 nM | < 10 nM | COc1c(OCCN(C)C)ccc2c1N=C(NC(=O)c1sc(C)nc1C)N1CCN=C21 |
| < 10 nM | < 10 nM | COc1c(OCCCN2C[C@@H](C)O[C@@H](C)C2)ccc2c1N=C(NC(=O)c1cccnc1)N1CCN=C21 |
| < 10 nM | < 10 nM | COc1c(OCCCN(C)C)ccc2c1N=C(NC(=O)c1cnc(NCCN(C)C)nc1)N1CCN=C21 |
| < 10 nM | < 10 nM | COc1c(OCCCN2C[C@@H](C)O[C@@H](C)C2)ccc2c1N=C(NC(=O)c1ccc(N)nc1)N1CCN=C21 |
| < 10 nM | < 10 nM | COc1c(OCCCN2CCOCC2)ccc2c1N=C(NC(=O)c1ccc(F)nc1)N1CCN=C21 |
| < 10 nM | < 10 nM | COc1c(OCCCN2CCOCC2)ccc2c1N=C(NC(=O)c1cnc(N)s1)N1CCN=C21 |
| < 10 nM | < 10 nM | COc1cncc(C(=O)NC2=Nc3c(ccc(OCCCN4CCOCC4)c3OC)C3=NCCN23)c1 |
| < 10 nM | < 10 nM | COc1c(OCCCN2C[C@@H](C)O[C@@H](C)C2)ccc2c1N=C(NC(=O)c1cncnc1)N1CCN=C21 |
| < 10 nM | < 10 nM | COc1c(OCCCN2CCOCC2)ccc2c1N=C(NC(=O)c1ccc(C)nc1)N1CCN=C21 |

| IC50 [1] | IC50 [2] | Compound |
| --- | --- | --- |
| < 10 nM | < 10 nM | COc1c(OCCCN2CCOCC2)ccc2c1N=C(NC(=O)c1ccc(N)nc1)N1CCN=C21 |
| < 10 nM | < 10 nM | CCN1CCOC(CCOc2ccc3c(c2OC)N=C(NC(=O)c2cccnc2)N2CCN=C32)C1 (centres undefined) |
| < 10 nM | < 10 nM | CCN(CC)CCCOc1ccc2c(c1OC)N=C(NC(=O)c1cccnc1)N1CCN=C21 |
| < 10 nM | < 10 nM | CNC(=O)Nc1ccc(C(=O)NC2=Nc3c(ccc(OCCCN4CCOCC4)c3OC)C3=NCCN23)cn1 |
| < 10 nM | < 10 nM | COc1c(OCCCN2C[C@@H](C)O[C@@H](C)C2)ccc2c1N=C(NC(=O)c1cnc(N)nc1)N1CCN=C21 |
| < 10 nM | < 10 nM | COc1c(OCCCN2C[C@@H](C)O[C@@H](C)C2)ccc2c1N=C(NC(=O)c1ccc(C)nc1)N1CCN=C21 |
| < 10 nM | < 10 nM | COc1c(OCCCN2CCOCC2)ccc2c1N=C(NC(=O)c1ccc(NC(=O)C(C)C)nc1)N1CCN=C21 |
| < 10 nM | < 10 nM | COc1c(OCCCN2CCOCC2)ccc2c1N=C(NC(=O)c1ccc(NCc3ccco3)nc1)N1CCN=C21 |
| < 10 nM | < 10 nM | COc1c(OCCCN2CCOCC2)ccc2c1N=C(NC(=O)c1ccc(NC(=O)NC(C)C)nc1)N1CCN=C21 |
| < 10 nM | < 10 nM | COc1c(OCCN2CCOCC2)ccc2c1N=C(NC(=O)c1cccnc1)N1CCN=C21 |
| < 10 nM | < 10 nM | COc1c(OCCCN2CCOCC2)ccc2c1N=C(NC(=O)c1sc(N)nc1C)N1CCN=C21 |
| < 10 nM | < 10 nM | COc1c(OCCCN2CCCCC2)ccc2c1N=C(NC(=O)c1cccnc1)N1CCN=C21 |
| < 10 nM | < 10 nM | COc1c(OCCN2CCCCC2)ccc2c1N=C(NC(=O)c1cccnc1)N1CCN=C21 |
| < 10 nM | < 10 nM | COCCN1CCOC(CCCOc2ccc3c(c2OC)N=C(NC(=O)c2cccnc2)N2CCN=C32)C1 (centres undefined) |
| < 10 nM | < 10 nM | COc1c(OCCCN)ccc2c1N=C(NC(=O)c1cccnc1)N1CCN=C21 |
| < 10 nM | < 10 nM | COc1c(OCC2CNCCO2)ccc2c1N=C(NC(=O)c1cccnc1)N1CCN=C21 (centres undefined) |
| < 10 nM | < 10 nM | COCCNc1ccc(C(=O)NC2=Nc3c(ccc(OCCCN4CCOCC4)c3OC)C3=NCCN23)cn1 |
| < 10 nM | < 10 nM | COc1c(OCCN2CCCC2)ccc2c1N=C(NC(=O)c1cccnc1)N1CCN=C21 |
| < 10 nM | < 10 nM | CCN(CC)CCOc1ccc2c(c1OC)N=C(NC(=O)c1cccnc1)N1CCN=C21 |

| Compound | IC50 [1] | IC50 [2] |
| --- | --- | --- |
| COc1c(OCCCN2CCOC(CO)C2)ccc2c1N=C(NC(=O)c1cccnc1)N1CCN=C21 (centres undefined) | < 10 nM | < 10 nM |
